# In article PMC6764124 (Journal of Neuroinflammation, 2019):
# Read-outs that look alike come from different tables or passages of the source.
# Key:
# latent HIV in T cells = test system: latent HIV in T cells; parameters: method as in PMID 29267399; conditions: cited from earlier work
# J-lat T cells = test: TNF-α-induced reactivation of latent HIV-1 in J-lat T cells; format: cell-based, human
# HIV-1baL = test: Antiviral activity in primary human macrophages (p24 ELISA); format: cell-based; conditions: for EC90: read-out: EC90 inhibition of HIV replication in macrophages
# Excerpt: Mϕ and monocytes were isolated as previously described. […] Cells were maintained for 6 days before viral quantification (p24-ELISA). For in vitro activation marker studies, CD14^+ monocytes or fully differentiated (CD14^−/CD11b^+) Mϕ were used. Monocytes were used as a model to mimic HIV-induced activation that transpires in the periphery, wherein presence or internalization of HIV-1 in monocytes confers activation (CD14^+/CD16^+) and subsequent trafficking of “Trojan horse” monocytes across and within the BBB [11, 12]. The method used to differentiate Mϕ (CD14^−/CD11b^+) has been validated by our group to ensure that these cells are no longer expressing monocyte marker CD14 and are mature Mϕ (CD11b expression). Mϕ or monocytes were treated with various concentrations of drug prior to infection (HIV-1baL) and maintained for 3 days before quantification of HLA-DR, CD163 (Mϕ), or CD14/CD16 (monocytes; Miltenyi Biotec, San Diego, CA). Mϕ and monocytes were treated with various concentrations of drug for 6 days and stained with Near-IR live/dead dye and quantified by FACS. Antiviral potency was calculated as previously described.
# [1] = test system: HIV replication in primary PBM cells; test: Antiviral activity in activated peripheral blood mononuclear (PBM) cells; format: cell-based, HIV-1; conditions: for EC90: read-out: EC90 inhibition of HIV replication in PBM cells
# [2] = test system: HLA-DR and CD163 in primary human Mϕ; test: HIV-induced upregulation of activation markers HLA-DR and CD163 in primary human macrophages; format: cell-based
# Excerpt: Mϕ and monocytes were isolated as previously described. […] Cells were maintained for 6 days before viral quantification (p24-ELISA). For in vitro activation marker studies, CD14^+ monocytes or fully differentiated (CD14^−/CD11b^+) Mϕ were used. […] The method used to differentiate Mϕ (CD14^−/CD11b^+) has been validated by our group to ensure that these cells are no longer expressing monocyte marker CD14 and are mature Mϕ (CD11b expression). […] Miltenyi Biotec, San Diego, CA). Mϕ and monocytes were treated with various concentrations of drug for 6 days and stained with Near-IR live/dead dye and quantified by FACS. Antiviral potency was calculated as previously described. […] Cells were harvested and stained for CD14^+ (FITC)/CD16^+ (APC) to quantify HIV-induced activation or impact of drugs on block of these markers.
# [3] = test system: non-dividing p24+ primary CD4+ T cells; test: Frequency of non-dividing p24+ latent primary CD4+ T cells in vitro; format: cell-based, human
# [4] = test system: latent HIV-1 in primary human Mϕ; test: PMA-induced reactivation of HIV-1 from latent primary human macrophages (p24 ELISA); format: cell-based
# Method: Primary human Mϕ were prepared as described above and infected with an MOI of 0.5 with HIV-1BaL for 4 h prior to removal of virus and culture in virus-free medium. Supernatants were collected every 5 days, and extracellular p24 production was monitored (p24 ELISA, ABL, Inc.). Fresh culture medium was added to cultures every 5 days as supernatants were collected for p24 analysis. […] After 24 h post-reactivation, cellular supernatants were collected, and extracellular reactivated p24 was quantified (p24 ELISA). Percent inhibition of reactivation was calculated versus no drug controls, and EC50/90 were calculated as previously described.
# HIV-infected individuals = test system: HIV-infected individuals; parameters: method as in earlier work; conditions: cited from earlier work
# HIVE mouse model = test system: HIVE mouse model; parameters: method as in PMID 26851503; conditions: cited from earlier work
# [5] = test system: HAND mice (IC injection of HIV-infected human MDM); test: Brain HAND markers by flow cytometry in SCID mouse HAND model; format: in vivo; conditions: day 14, versus untreated HAND mice
# Method: Four-week-old B6.CB17-Prkdc^scid/SzJ (SCID) male mice were injected IC with 30 μL of HIV-infected MDMs suspended in 0.9% saline, directly into the frontal lobe of the right hemisphere. The injection was done free-handed (without a stereotactic device). The injection is performed with a syringe that allows a very slow rate of infusion. We have verified the injection site with a histological staining in our previously published works, which is in the basal ganglia as described in Koneru et al.. Injections were performed on day 0 (D0). Treatments (baricitinib or saline) were given subcutaneously (SC).
# Fourteen days after IC MDM inoculation, mice were sacrificed and brain samples were harvested and placed in a tissue preservative solution (Miltenyi, Bergisch Gladbach, Germany). Samples were then dissociated using a commercial kit and a gentleMacs dissociator (Miltenyi) into single cell suspensions. Cells were then washed in 2% BSA/PBS buffer and incubated with the following: (1) anti-murine CD45-Vioblue (1:10 dilution) and anti-murine MHCII primary antibody (1:500) followed by APC conjugated secondary antibody (1:500 dilution), or isotype-only controls; (2) GFAP-FITC (1:750 dilution 1′ antibody and 1:1000 2′ 488 (FITC) antibody (Abcam, Cambridge, UK); or (3) human (non-murine cross-reactive) CD163-APC (Miltenyi Biotec) for 30 min (Sigma Aldrich, St. Louis, MO). Cells were washed twice in 2% BSA/PBS and fixed with 2% paraformaldehyde for 15 min. Cells were washed twice in 2% BSA/PBS and analyzed for double positive cells by flow cytometry (Macs Quant analyzer and MacsQuantify software, Miltenyi Biotec).
# Total events were collected using forward scatter (FSC) and side scatter […] followed by doublet discrimination (FSC-area versus FSC-height) using a MacsQuant flow cytometer (Miltenyi). No primary FSC/SSC gate was established, to allow all events to be collected within the heterogeneous size and granularity of the brain cells. GFAP^+ events were collected with gates and voltages established using 2′ antibody only. GFAP^+ low granularity gate was established with events up to one-log shift from negative population, and GFAP^+ high granularity (activated astrocytes) was established with events greater than two-log shift from negative population. MHCII and CD45 (mouse mononuclear phagocytes) expression were quantified based on quadrant gating for MHCII^+/CD45^−, CD45^+MHCII^−, MHCII^+/CD45^+, or MHCII^−/CD45^−. CD163^+ events (human Mϕ) were collected with gates established from isotype-only controls. Percentages and total events were collected.
# [6] = Pharmacokinetics of baricitinib in mouse plasma and brain after single SC dose (LC-MS/MS); format: in vivo, SCID mice; conditions: for Cmax: SCID mice
# Method: One, 4, 8, and 24 h after drug inoculation, mice were sacrificed and whole blood was collected immediately followed by cardiac perfusion with PBS prior to the extraction of brain tissues. After brain extraction, posterior fossa (the cerebellum and brainstem) was taken, snap frozen, and stored at − 70 °C. Posterior fossa from each mouse was then weighed and homogenized in a mixed water and methanol (2:1) solution. The homogenates were then centrifuged, and the pellet discarded. The supernatant was dried by evaporation using nitrogen gas, resuspended in 1 mL water, and put through Isolute-XL C18 columns (Biotage, Uppsala, Sweden). Drug was then eluted with acetonitrile and subsequently dried. […] Chromatographic separation was performed by Ultimate 3000 LC system (Thermo Scientific, MA, USA), on a Kinetex XB-C18 column (50 × 2.1 mm) with a 2.6-μm particle size (Phenomenex, CA, USA). The mobile phase A consisted of 0.1% formic acid in water, and the mobile phase B consisted of methanol. Isocratic elution was used for the separation with mobile phase A:B at 25:75 (v/v). The column was maintained at ambient temperature. The flow rate was maintained at 250 μL/min, and a 20-μL injection was used. An API5000 triple quadrupole mass spectrometer (ABsciex, MA, USA) was used for detection, with electrospray ionization in positive ion mode. The mass spectrum parameters for the analytes were set as follows: ion spray voltage, 5500 V; curtain gas, 25 psi; ion source gas 1, 40 psi; ion source gas 2, 40 psi; source temperature, 500 °C; and collision gas, 5 psi. […] Analyst software version 1.5.2 was used to operate the mass spectrometer and to perform data analysis. […] The calibration curves had r^2 value greater than 0.99.
# [7] = parameters: method as in Olumiant.com; conditions: at concentrations more than 2 logs above concentrations in the murine model; ref Olumiant.com; cited from earlier work
smiles,measurement,setting,value
C[C@@H]1CCN(C(=O)CC#N)C[C@@H]1N(C)c1ncnc2[nH]ccc12 [tofacitinib],Reactivation of latent HIV from T cells,latent HIV in T cells,block the reactivation
Nc1ccn([C@@H]2CS[C@H](CO)O2)c(=O)n1 [3TC],"Effect on TNF-a induced reactivation (dose response, Figure S1 C)",J-lat T cells,did not have any effect
same,EC50,"HIV-1baL; primary human Mϕ, read-out: EC50 inhibition of HIV replication in macrophages",100 nM
same,EC90,HIV-1baL; primary human Mϕ,1200 nM
same,EC50,"[1]; primary activated PBM cells, read-out: EC50 inhibition of HIV replication in PBM cells",10 nM
same,EC90,[1]; primary activated PBM cells,900 nM
same,"Effect on HIV-induced activation markers HLA-DR/CD163 double positive macrophages (dose response, Figure S1 F)",[2],did not have any effect
same,"Effect on frequency of non-dividing latent CD4 T cells (dose response, Figure S1 E)",[3],did not have any effect
same,"Effect on PMA induced reactivation (dose response, Figure S1 D)",[4]; macrophages,did not have any effect
N#CC[C@H](C1CCCC1)n1cc(-c2ncnc3[nH]ccc23)cn1 [ruxolitinib],Reactivation of latent HIV from T cells,latent HIV in T cells,block the reactivation
same,Safety and tolerability,"HIV-infected individuals; HIV-infected, cART-suppressed individuals, versus control cART group",safe and well-tolerated
same,sCD14 (clinical marker for monocyte activation),HIV-infected individuals; ruxolitinib arm versus cART group,significant reduction
same,Effect on HIVE in mouse model,HIVE mouse model,ameliorates HIVE
CCS(=O)(=O)N1CC(CC#N)(n2cc(-c3ncnc4[nH]ccc34)cn2)C1 [Baricitinib],Activated astrocytes (GFAP+; astrogliosis) in brain,[5]; 10 mg/kg qd SC,reduced
same,Percentage of activated mouse mononuclear phagocytes (MHCII/CD45 double positive cells) in brain,[5]; 10 mg/kg qd SC,significantly reduced
same,Activated p24+ human Mϕ in brain,[5]; 50 mg/kg qd SC (high dose),significantly reduced
same,Activated astrocytes (GFAP+; astrogliosis) in brain,[5]; 50 mg/kg qd SC,reduced
same,Percentage of activated mouse mononuclear phagocytes (MHCII/CD45 double positive cells) in brain,[5]; 50 mg/kg qd SC,significantly reduced
same,EC90,"J-lat T cells; Homo sapiens, T-cell, read-out: EC90 inhibition of TNF-α induced reactivation",1100 ± 300 nM
same,EC90,"HIV-1baL; Human immunodeficiency virus 1, Macrophage",2100 ± 300 nM
same,EC90,"[1]; Human immunodeficiency virus 1, PBMC",400 ± 70 nM
same,EC90,"[2]; Macrophage, primary human macrophages, read-out: EC90 inhibition of HIV-induced HLA-DR and CD163",1200 nM
same,EC90,"[3]; Homo sapiens, non-dividing p24+ primary CD4+ T cells, read-out: EC90 reduction of non dividing latent CD4 T cells",700 ± 80 nM
same,Detection in plasma and brain samples,"[6]; 1, 4, 8, 24 h after 10 or 50 mg/kg SC, limit of detection 5.5 ng/mL",detected in all plasma and brain samples except for 24 h plasma samples at 10 mg/kg
same,Blood-brain barrier penetration,"[6]; 10 and 50 mg/kg SC, mouse",can penetrate mouse BBB
same,Cmax,"[6]; mouse, brain (posterior fossa: cerebellum and brainstem), 10 mg/kg single SC, read-out: Cmax in the brain",~40 ng/g
same,Cmax,"[6]; mouse, brain (posterior fossa: cerebellum and brainstem), 50 mg/kg single SC, read-out: Cmax in the brain",~75 ng/g
same,Cmax,"[6]; mouse, plasma, 10 mg/kg single SC, read-out: Cmax in plasma",~200 ng/mL
same,Cmax,"[6]; mouse, plasma, 50 mg/kg single SC, read-out: Cmax in plasma",~1400 ng/mL
same,EC90,"[4]; Macrophage, latent primary human macrophages, 50 ng/mL PMA, 24 h, read-out: EC90 inhibition of PMA induced reactivation",700 ± 100 nM
same,Toxicity,[7],not toxic
